Source: the NIST ThermoML archive (doi:10.1016/j.jct.2004.01.006)
± gives the expanded uncertainty stated by the source.

Assays:
[1] = Molar enthalpy of transition or fusion; details: Crystal; Adiabatic calorimetry
[2] = Crystal; Adiabatic calorimetry

O=Cc1ccc(Cl)cc1Cl [2,4-dichlorobenzaldehyde]
Molar enthalpy of transition or fusion [1]: 4.892 ± 0.0167 kcal/mol | Triple point temperature [2]: 347.24 ± 0.27 K
